Our source for the ΔTm values is ChEMBL document CHEMBL5308504, “Tm Shift (DSF) assay results for EUbOPEN Chemogenomics Library” (2023).

Values joined by “and” are separate entries in the source; they are usually repeats but may differ in a detail not shown here. Equal entries are not always repeated.

For one experiment, the target named is T1, Peregrin (Homo sapiens) (UniProt P55201).
T1 sequence (whole entry): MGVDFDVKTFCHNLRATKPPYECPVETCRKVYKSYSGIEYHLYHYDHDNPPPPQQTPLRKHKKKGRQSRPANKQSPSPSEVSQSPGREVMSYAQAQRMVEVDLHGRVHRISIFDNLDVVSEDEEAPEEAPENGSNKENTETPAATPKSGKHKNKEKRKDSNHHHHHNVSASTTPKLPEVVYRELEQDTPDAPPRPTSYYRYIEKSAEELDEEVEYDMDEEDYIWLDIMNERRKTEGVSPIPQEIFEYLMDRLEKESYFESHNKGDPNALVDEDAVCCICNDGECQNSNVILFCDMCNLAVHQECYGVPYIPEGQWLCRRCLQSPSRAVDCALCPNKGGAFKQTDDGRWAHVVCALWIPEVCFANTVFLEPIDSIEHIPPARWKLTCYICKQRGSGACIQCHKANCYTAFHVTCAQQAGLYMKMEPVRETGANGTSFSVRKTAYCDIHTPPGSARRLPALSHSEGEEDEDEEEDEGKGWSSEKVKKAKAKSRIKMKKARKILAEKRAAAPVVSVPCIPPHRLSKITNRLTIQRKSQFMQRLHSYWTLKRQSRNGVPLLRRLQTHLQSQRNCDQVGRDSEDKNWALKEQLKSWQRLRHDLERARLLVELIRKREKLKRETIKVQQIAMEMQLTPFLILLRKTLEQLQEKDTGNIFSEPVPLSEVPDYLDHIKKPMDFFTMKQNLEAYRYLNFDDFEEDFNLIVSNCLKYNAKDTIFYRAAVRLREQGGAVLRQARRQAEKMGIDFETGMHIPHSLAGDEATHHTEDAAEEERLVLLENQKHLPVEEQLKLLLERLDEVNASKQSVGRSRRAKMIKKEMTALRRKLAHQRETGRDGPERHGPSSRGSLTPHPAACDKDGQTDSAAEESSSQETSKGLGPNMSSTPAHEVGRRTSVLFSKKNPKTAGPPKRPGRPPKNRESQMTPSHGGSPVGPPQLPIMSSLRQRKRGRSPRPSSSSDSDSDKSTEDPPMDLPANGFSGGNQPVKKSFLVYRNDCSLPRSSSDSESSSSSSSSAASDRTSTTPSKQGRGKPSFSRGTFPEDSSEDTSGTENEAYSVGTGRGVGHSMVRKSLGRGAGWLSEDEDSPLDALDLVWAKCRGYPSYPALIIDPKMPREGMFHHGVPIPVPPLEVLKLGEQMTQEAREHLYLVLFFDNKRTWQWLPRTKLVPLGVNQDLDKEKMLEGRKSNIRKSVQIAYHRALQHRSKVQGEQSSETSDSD
The following applies: Compound concentration 20.0 uM, Protein concentration 2.0 uM, Result type QC Liability.

Experiment [1] deals with Fibroblast growth factor receptor 3 (Homo sapiens) (UniProt P22607). The following applies: Compound concentration 20.0 uM, Protein concentration 2.0 uM, Result type QC Liability.
Sequence of Fibroblast growth factor receptor 3 (Homo sapiens) (P22607 23-806 limits assumed): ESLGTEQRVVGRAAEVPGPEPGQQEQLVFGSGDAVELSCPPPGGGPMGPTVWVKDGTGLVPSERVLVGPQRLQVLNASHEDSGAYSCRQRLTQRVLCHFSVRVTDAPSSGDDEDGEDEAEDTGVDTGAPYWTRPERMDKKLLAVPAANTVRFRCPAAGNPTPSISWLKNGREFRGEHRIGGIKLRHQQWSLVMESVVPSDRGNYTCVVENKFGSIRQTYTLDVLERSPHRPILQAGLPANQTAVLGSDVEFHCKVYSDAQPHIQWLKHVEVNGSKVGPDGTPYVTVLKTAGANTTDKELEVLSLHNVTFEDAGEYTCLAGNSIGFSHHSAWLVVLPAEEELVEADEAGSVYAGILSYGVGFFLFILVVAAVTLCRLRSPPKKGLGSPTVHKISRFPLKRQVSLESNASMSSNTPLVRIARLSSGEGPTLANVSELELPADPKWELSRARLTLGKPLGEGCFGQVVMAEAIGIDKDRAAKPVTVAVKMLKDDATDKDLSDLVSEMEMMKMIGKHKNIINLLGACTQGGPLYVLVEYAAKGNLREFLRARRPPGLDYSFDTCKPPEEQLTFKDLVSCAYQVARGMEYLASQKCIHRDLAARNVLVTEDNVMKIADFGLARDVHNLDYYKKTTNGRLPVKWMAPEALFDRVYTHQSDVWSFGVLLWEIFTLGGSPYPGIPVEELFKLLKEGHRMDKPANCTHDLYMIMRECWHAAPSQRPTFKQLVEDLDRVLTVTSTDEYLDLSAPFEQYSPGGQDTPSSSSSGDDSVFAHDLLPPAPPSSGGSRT
Description: Thermal Shift Assay. Domain: start/stop: P449-E759

As a reminder, the ΔTm is the change in melting temperature against a reference sample.

`CCn1c(CNC(=O)c2nc(Cl)cnc2N)[n+](CC)c2ccc(C(=O)N(C)CCN(C)C)cc21`: the results for the thermal shift (ΔTm) (at Peregrin (Homo sapiens); in experiment [1]) were -1.87 °C and 0.5 °C, respectively.

As for `CC[C@H](Nc1c(C#N)c(-c2ccc(-c3cccc(C)c3F)cc2)nc2cnccc12)C(=O)O`, the ΔTm is -1.54 °C on Peregrin (Homo sapiens) and -0.1 °C in experiment [1].

With `C[C@@H]1C[C@H](C)CN(c2ncc(Cl)c(Nc3ccc4c(c3)cc(OC(C)(C)C(=O)O)c(=O)n4C)n2)C1`, the ΔTm at Peregrin (Homo sapiens) was -3.96 °C; in experiment [1] it was 0.41 °C.

Regarding `COc1ccccc1N1CCN(c2ncnc3c2cnn3-c2ccccc2)CC1`, the ΔTm on Peregrin (Homo sapiens) is -1.23 °C; in experiment [1], 0.51 °C.

For the molecule `C=CC(=O)Nc1ccc2[nH]c(=O)n(C3CCN(Cc4ccc(-c5ccc6c(c5)NC(=O)CO6)cc4)CC3)c2c1`, the values for the ΔTm (on Peregrin (Homo sapiens); in experiment [1]) were -0.12 °C and 0.37 °C, respectively.

On to `CN1CCN(C(=O)c2ccc3cc2OCCOCCNc2ccn4ncc-3c4n2)CC1`, for which the ΔTm is -1.15 °C on Peregrin (Homo sapiens) and 2.23 °C in experiment [1].

For the molecule `O=C(O)CCn1c2c(c3ccccc31)C[C@H](NS(=O)(=O)c1ccc(F)cc1)CC2`, the ΔTm at Peregrin (Homo sapiens) was -1.45 °C; in experiment [1], 0.49 °C.

With `Fc1cccc(-n2cnc3c(NCc4nc5c(F)c(F)ccc5[nH]4)nc(N4CCOCC4)nc32)c1`, the values for the ΔTm (at Peregrin (Homo sapiens); in experiment [1]) were -0.08 °C and -0.16 °C, respectively.

As to `CC(=O)c1c(C)c2cnc(Nc3ccc(N4CCN(CCOCCOCCOCCNC(=O)COc5cccc6c5C(=O)N(C5CCC(=O)NC5=O)C6=O)CC4)cn3)nc2n(C2CCCC2)c1=O` (stereo not drawn), the ΔTm on Peregrin (Homo sapiens) is -1.99 °C; in experiment [1], 0.48 °C.

On to `CN(C(=O)c1ccccc1)c1ccc2c(c1)[nH]/c(=N\C(=O)c1ccc(Br)s1)n2CCC(N)=O`, for which the ΔTm on Peregrin (Homo sapiens) is -2.4 °C; in experiment [1] it was 4.52 °C.

On to `CN[C@@H](C)C(=O)N[C@H](C(=O)N1CCC[C@H]1C(=O)N[C@@H]1CCCc2ccccc21)C1CCCCC1`, for which the thermal shift (ΔTm) at Peregrin (Homo sapiens) was -1.87 °C; in experiment [1], 0.75 °C.

As for `CC(C)NC(=O)[C@H]1CCC[C@H]1Nc1nc(Nc2ccc(CN(C)C)cc2)ncc1Br`, the ΔTm is -1.84 °C at Peregrin (Homo sapiens) and 7.35 °C in experiment [1].

`O=C(CCSCc1ccco1)NNC(=O)N1Cc2ccccc2Oc2ccc(Cl)cc21`: the ΔTm was -3.17 °C at Peregrin (Homo sapiens) and 0.24 °C in experiment [1].

For the molecule `CCS(=O)(=O)c1ccc(OC)c(Nc2ncc(-c3cccc(F)c3)o2)c1`, the ΔTm on Peregrin (Homo sapiens) was -1.63 °C; in experiment [1] it was 3.6 °C.

Consider `CN1C(=O)[C@@H](NC(=O)c2cc(Cc3ccccc3)on2)COc2ccccc21`, for which the thermal shift (ΔTm) at Peregrin (Homo sapiens) was -1.87 °C; in experiment [1] it was -2.65 °C.

In the case of `CC1(C)C[C@@H]1C(=O)N/C(=C\CCCCSC[C@H](N)C(=O)O)C(=O)O`, the ΔTm at Peregrin (Homo sapiens) is -2.3 °C; in experiment [1] it was 0.5 °C.

Turning to `C[C@@H](CO)CCC[C@@H](C)[C@H]1CC[C@H]2[C@@H]3CC=C4C[C@@H](O)CC[C@]4(C)[C@H]3CC[C@]12C`, the ΔTm at Peregrin (Homo sapiens) was -1.97 °C; in experiment [1], 0.9 °C.

For the molecule `Nc1nccc(-c2c(-c3ccc(F)cc3)ncn2C2CCN(Cc3ccon3)CC2)n1`, the ΔTm is -1.77 °C at Peregrin (Homo sapiens) and 0.95 °C in experiment [1].

Turning to `COc1nc2ccc([C@@](O)(c3ccccc3)C3CCN(C(C)=O)CC3)cc2c(Cl)c1Cc1ccc(-n2cccn2)cc1`, the ΔTm at Peregrin (Homo sapiens) is -1.27 °C; in experiment [1], 5.87 °C.

Take `COCCCS(=O)(=O)c1cc(C)c(-c2ccc(F)c3c2CC[C@H]3Oc2ccc3c(c2)OC[C@H]3CC(=O)O)c(C)c1`: the ΔTm at Peregrin (Homo sapiens) was -4.61 °C; in experiment [1] it was 0.81 °C.

With `O=C1CCC(N2Cc3cc(CNC(=O)C(F)(F)c4ccc(Cl)cc4)ccc3C2=O)C(=O)N1` (stereo not drawn), the values for the ΔTm (at Peregrin (Homo sapiens); in experiment [1]) were -1.67 °C and 0.44 °C, respectively.

As for `CN(c1ccc(C(F)(F)F)cc1)S(=O)(=O)c1ccc(C(=O)Nc2nc(-c3ccccn3)cs2)cc1`, the figures for the ΔTm (at Peregrin (Homo sapiens); in experiment [1]) were 7.54 °C and 8.54 °C, respectively.

Take `CCCN1CCC(C#N)(NC(=O)[C@H](CC(C)(C)C)NC(=O)N2CCOCC2)CC1`: the ΔTm on Peregrin (Homo sapiens) is -2.18 °C; in experiment [1], 0.37 °C.

`COc1cc(OC)cc(-c2cc3cnc(N)nc3nc2NC(=O)NC(C)(C)C)c1`: the ΔTm was -0.52 °C and -0.82 °C on Peregrin (Homo sapiens); 5.05 °C and 9.51 °C in experiment [1].

For the molecule `CNC(=O)c1c(F)cccc1Nc1nc(Nc2cc3c(cc2OC)CCN3C(=O)CN(C)C)nc2[nH]ccc12`, the ΔTm on Peregrin (Homo sapiens) was -2.03 °C; in experiment [1] it was 0.2 °C.

Take `COc1ncc(-c2cc(-c3ncc(CN4C[C@@H](C)O[C@@H](C)C4)o3)c3cn[nH]c3c2)cc1NS(C)(=O)=O`: the ΔTm is -0.2 °C at Peregrin (Homo sapiens) and 1.45 °C in experiment [1].

As to `CO[C@H]1C[C@@H]2CC[C@@H](C)[C@@](O)(O2)C(=O)C(=O)N2CCCC[C@H]2C(=O)O[C@H]([C@H](C)C[C@@H]2CC[C@@H](O)[C@H](OC)C2)CC(=O)[C@H](C)/C=C(\C)[C@@H](O)[C@@H](OC)C(=O)[C@H](C)C[C@H](C)/C=C/C=C/C=C/1C`, the ΔTm at Peregrin (Homo sapiens) is -1.78 °C; in experiment [1], 0.26 °C.

On to `CN1CCN(c2ccnc(NCCc3ccccc3)n2)CC1`, for which the results for the ΔTm (on Peregrin (Homo sapiens); in experiment [1]) were -1.12 °C and 0.59 °C, respectively.

For the molecule `CCOC(=O)c1ccc(CN(Cc2ccc(-c3cccc(S(C)(=O)=O)c3)cc2)S(=O)(=O)c2c(C)cc(C)cc2C)o1`, the ΔTm was -3.02 °C at Peregrin (Homo sapiens) and -1.46 °C in experiment [1].

As for `Nc1c(CC(=O)O)cccc1C(=O)c1ccc(Br)cc1`, the ΔTm at Peregrin (Homo sapiens) was -2.36 °C; in experiment [1] it was 0.57 °C.

On to `OCC1OC(n2cnc3cc(Cl)c(Cl)cc32)C(O)C1O` (stereo not drawn), for which the ΔTm at Peregrin (Homo sapiens) is -1.16 °C; in experiment [1] it was 0.39 °C.

With `O=C(O)c1cc2cc(Cc3cccnc3)ccc2o1`, the figures for the ΔTm (on Peregrin (Homo sapiens); in experiment [1]) were -2.16 °C and 0.96 °C, respectively.

For the molecule `O=C(Cc1ccccc1)Nc1nnc(N2CC[C@@H]3[C@H]2CN3c2cccnn2)s1`, the thermal shift (ΔTm) was -0.69 °C on Peregrin (Homo sapiens) and 0.51 °C in experiment [1].

Regarding `Cn1cc(Nc2nccc(N3CC4CCC(C3)N4C(=O)[C@@H]3CC3(F)F)n2)cn1`, the figures for the ΔTm (at Peregrin (Homo sapiens); in experiment [1]) were -0.71 °C and 2.58 °C, respectively.

With `CCN(C(=O)c1cc(F)ccc1Oc1cncnc1N1CC2(CCN(C[C@H]3CC[C@H](NS(=O)(=O)CC)CC3)CC2)C1)C(C)C`, the ΔTm at Peregrin (Homo sapiens) was -0.92 °C; in experiment [1] it was 0.56 °C.

`O=C1Nc2ccc(C(=O)c3ccco3)cc2C1=Cc1cc(Cl)c(O)c(Cl)c1`: the ΔTm at Peregrin (Homo sapiens) was found to be 0.59 °C; in experiment [1] it was 2.35 °C.

For `O=C(Nc1ccc(C(O)(C(F)(F)F)C(F)(F)F)cc1)c1ccc(C(F)(F)F)cc1`, the ΔTm at Peregrin (Homo sapiens) was 0.72 °C; in experiment [1], 2.93 °C.

With `CCOP(=O)(OCC)C(=Cc1cc(C(C)(C)C)c(O)c(C(C)(C)C)c1)P(=O)(OCC)OCC`, the thermal shift (ΔTm) was -1.65 °C on Peregrin (Homo sapiens) and 0.83 °C in experiment [1].

`N[C@@H]1CCCN(c2c(/C=C3\SC(=O)NC3=O)cccc2-c2ccccc2)C1`: the ΔTm is -2.04 °C on Peregrin (Homo sapiens) and 0.95 °C in experiment [1].

Turning to `CC[C@@H](Nc1c(C#N)c(-c2ccc(-c3cccc(C)c3F)cc2)nc2cnccc12)C(=O)O`, the results for the ΔTm (on Peregrin (Homo sapiens); in experiment [1]) were -0.66 °C and 0 °C, respectively.

As for `CCc1nc(-c2cccc(C)c2)c(-c2ccncc2)s1`, the ΔTm on Peregrin (Homo sapiens) is -0.75 °C; in experiment [1], 0.65 °C.

On to `O=C(O)[C@]1(Cc2cccc(Nc3nccs3)n2)CC[C@@H](Oc2cccc(Cl)c2F)CC1`, for which the ΔTm at Peregrin (Homo sapiens) is -3.28 °C; in experiment [1], 6.09 °C.

`C[C@H](NC(=O)c1cnc2n1[C@](C)(Cc1ccc(C#N)cc1)C(=O)N2c1cc(Cl)c(F)c(Cl)c1)C(=O)NC1(c2ccccn2)CC1`: the figures for the ΔTm (on Peregrin (Homo sapiens); in experiment [1]) were -0.27 °C and 0.96 °C, respectively.

As for `CN(C)C(=O)Cn1cc(-c2nc([C@@](C)(c3ccc(-c4cnc(N)nc4)cc3)C3CC3)no2)cn1`, the ΔTm on Peregrin (Homo sapiens) was -1.93 °C; in experiment [1], 0.61 °C.

Take `CCN(CC)C(=O)C1CN2CCc3cc(OC)c(OC)cc3C2CC1OC(C)=O` (stereo not drawn): the ΔTm at Peregrin (Homo sapiens) is -2.07 °C; in experiment [1] it was 0.43 °C.

As to `COc1ccc(COc2ccc(Cc3cnc(N)nc3N)cc2OC)cc1`, the ΔTm was -1.34 °C at Peregrin (Homo sapiens) and 0.48 °C in experiment [1].

`COc1cc(-c2cn[nH]c2)ccc1C(=O)Nc1ccc2c(c1)CCNCC2`: the ΔTm was determined as 0.1 °C on Peregrin (Homo sapiens) and 0.93 °C in experiment [1].

`C=CC(=O)Nc1cccc(C)c1Nc1ncc2cc(-c3c(Cl)c(OC)cc(OC)c3Cl)ccc2n1`: the figures for the ΔTm (at Peregrin (Homo sapiens); in experiment [1]) were -0.73 °C and 1.71 °C, respectively.

As to `O=C(O)c1ccc(OCCCc2ccc(OCCCCOC3CCCCC3)cc2)c(C(=O)NC2CCCC(C(=O)O)C2)c1` (stereo not drawn), the results for the ΔTm (at Peregrin (Homo sapiens); in experiment [1]) were -4.19 °C and 0.54 °C, respectively.
